We go through 41 compounds from patent publication US7759373B2, “Large conductance calcium-activated K channel opener” (Mitsubishi Tanabe Pharma Corporation, priority 2001, dated 2010).

SMILES strings stand for the structures.

Experiment [1] has as its system rhythmic bladder contractions induced by substance P. Kind of experiment: Inhibitory effect on the rhythmic bladder contractions induced by substance P in anesthetized rats. It counts as in vivo, rat. As to conditions: time during which frequency of rhythmic contraction was completely inhibited, 0.25 mg/kg of the compound, substance P infusion. A digest of the protocol:
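Urethane-anesthetized female Sprague-Dawley rats with rhythmic bladder contractions driven by i.v. substance P (0.33 μg/kg/min). Compound given i.v. in saline/0.5% Tween 80 once contractions stable 15 min; intravesical pressure monitored, duration of 100% inhibition ranked A ≥20, B ≥10, C <10 min.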

The subject of experiment [2] is isolated rabbit urinary bladder. Kind of experiment: Relaxation effect on potassium-induced contraction of isolated rabbit urinary bladder. It counts as cell-based. The note with it: Oryctolagus cuniculus; 50% relaxation concentration; high-K+ (30 mM) pre-contracted rabbit bladder strips; relaxation as percentage of the maximum produced by 0.1 mM papaverine; read-out: EC50 value range. The protocol:
Relaxation effect on potassium-induced contraction of isolated rabbit urinary bladder
Urinary bladder was isolated from Male NZW rabbits (2.0-3.5 kg) and immersed in ice-cold Krebs-bicarbonate solution (in mM: 118 NaCl, 4.7 KCl, 1.2, 2.5 CaCl2, MgSO4, 1.2 KH2PO4, 11 glucose, 25 NaHCO3). The urinary bladder was cut into longitudinal strips (5 mm length, 3-4 mm width) after mucosal layer was removed. Preparations were mounted in organ baths containing 10 ml of Krebs solution maintained at 37° C. and gassed with 95% O2/5% CO2. Accordingly, preparations were stretched with an initial tension of 2.0±1.0 g, and changes in isometric tension were measured by force-displacement transducer. The preparations were pre-contracted by changing organ-bath solution into high-K^+ (30 mM) Krebs solution (in mM: 92.7 NaCl, 30 KCl, 1.2, 2.5 CaCl2, MgSO4, 1.2 KH2PO4, 11 glucose, 25 NaHCO3).
After stable tension was obtained, compounds were added into organ baths cumulatively (10^−8M-10^−4M). The effects of compounds were expressed as a percentage of the maximum relaxation produced by 0.1 mM papaverine. 50% relaxation concentration (EC50) was calculated and EC50 value range (μM) of the compounds of the present invention was shown in the following Table 64 with a rank of A, B or C. These ranges are as mentioned below. 3≧C≧1≧B≧0.5≧A

The term EC50 denotes the concentration needed to bring the measured effect to its halfway point. As to `COc1ccc(-c2nc(-c3ccc(Cl)cc3)c(CC(=O)O)s2)cc1` [Preparation Example 575], the “100% inhibition time range” value in experiment [1] is on record as “B (A≧20>B≧10>C (minute))”. Moreover, the EC50 in experiment [2] is at most 500 nM.
In the case of `CCCc1nc(-c2ccc(F)cc2)[nH]c1-c1ccc(N(C)C)cc1` [Preparation example 90], the “100% inhibition time range” value in experiment [1] is on record as “B (A≧20>B≧10>C (minute))”. For the same compound, the EC50 in experiment [2] lay in the range of 1000 to 3000 nM.
On the same counts, the results for `O=C(O)Cc1sc(-c2cc3ccccc3s2)nc1-c1ccc(Cl)cc1` [Preparation Example 574] are “B (A≧20>B≧10>C (minute))” and 1000 to 3000 nM.
On the same counts, the results for `O=C(O)Cc1nc(-c2ccc3occc3c2)oc1-c1ccsc1` [Preparation Example 255] are “B (A≧20>B≧10>C (minute))” and 1000 to 3000 nM.
The like results for `CNC(=O)Cc1nc(-c2ccc(F)cc2)oc1-c1ccsc1` [Preparation Example 374] were, in that order, “C (A≧20>B≧10>C (minute))” and 1000 to 3000 nM.
As to `CN(C)c1ccc(-c2nc(-c3cccs3)c(CC(=O)O)s2)cn1` [Preparation Example 579], in experiment [1], the “100% inhibition time range” value is reported as “C (A≧20>B≧10>C (minute))”. Moreover, the EC50 in experiment [2] was in the range of 500 to 1000 nM.
As for `CCCc1nc(-c2ccc(F)cc2)[nH]c1-c1cccc(F)c1` [Preparation example 99], in experiment [1], the “100% inhibition time range” value is reported as “B (A≧20>B≧10>C (minute))”. Besides, the EC50 in experiment [2] fell in the range of 500 to 1000 nM.
On the same counts, the results for `CCc1nc(-c2ccc(F)cc2)[nH]c1-c1cncs1` [Preparation example 86] are “B (A≧20>B≧10>C (minute))” and 500 to 1000 nM.
On the same counts, the results for `O=C(O)Cc1nc(-c2ccccc2)oc1-c1ccc(Cl)s1` [Preparation Example 279] are “C (A≧20>B≧10>C (minute))” and at most 500 nM.
On the same counts, the results for `FCCc1nc(-c2ccc(F)cc2)[nH]c1-c1ccccc1` [Preparation Example 182] are “B (A≧20>B≧10>C (minute))” and at most 500 nM.
Consider `COc1ccc(-c2nc(CC(=O)O)c(-c3ccc(Cl)s3)s2)cc1` [Preparation Example 609], for which, in experiment [1], the “100% inhibition time range” value is recorded as “B (A≧20>B≧10>C (minute))”. Also, the EC50 in experiment [2] fell in the range of 500 to 1000 nM.
The like results for `COc1ccc(-c2nc(-c3cccs3)c(CC(=O)O)s2)cc1` [Preparation Example 578] were, in that order, “B (A≧20>B≧10>C (minute))” and 500 to 1000 nM.
On the same counts, the results for `O=C(O)Cc1nc(-c2ccc(F)cc2)oc1-c1ccc(Cl)cc1` [Preparation Example 243] are “A (A≧20>B≧10>C (minute))” and at most 500 nM.
Take `O=C(O)Cc1nc(-c2cc3ccccc3o2)oc1-c1ccc(Cl)s1` [Preparation Example 435]: the “100% inhibition time range” value in experiment [1] is listed as “B (A≧20>B≧10>C (minute))”. In addition, the EC50 in experiment [2] was in the range of 500 to 1000 nM.
On the same counts, the results for `CN(C)c1ccc(-c2nc(-c3ccsc3)c(CC(=O)O)s2)cn1` [Preparation Example 596] are “B (A≧20>B≧10>C (minute))” and 1000 to 3000 nM.
On the same counts, the results for `Cc1csc(-c2nc(CC(=O)O)c(-c3ccc(Cl)s3)o2)c1` [Preparation Example 478] are “B (A≧20>B≧10>C (minute))” and at most 500 nM.
On the same counts, the results for `O=C(O)Cc1nc(-c2ccc(F)cc2)oc1-c1ccsc1` [Preparation Example 197] are “C (A≧20>B≧10>C (minute))” and 1000 to 3000 nM.
Consider `O=C(O)Cc1nc(-c2ccc(F)cc2)oc1-c1ccc(Cl)c(Cl)c1` [Preparation Example 240], for which the “100% inhibition time range” value in experiment [1] is reported as “C (A≧20>B≧10>C (minute))”. In experiment [2], the concentration for a half-maximal effect (EC50) fell in the range of 500 to 1000 nM.
The like results for `COc1ccc(-c2nc(CC(=O)O)c(-c3cccs3)o2)cc1F` [Preparation Example 431] were, in that order, “B (A≧20>B≧10>C (minute))” and 500 to 1000 nM.
On the same counts, the results for `CN(C)c1ncc(-c2nc(-c3ccc(Cl)cc3)c(CC(=O)O)s2)cn1` [Preparation Example 601] are “A (A≧20>B≧10>C (minute))” and 500 to 1000 nM.
The like results for `CCc1nc(-c2ccc(C#N)cc2)[nH]c1-c1cccnc1` [Preparation example 53] were, in that order, “C (A≧20>B≧10>C (minute))” and 500 to 1000 nM.
Consider `O=C(O)Cc1nc(-c2ccc3occc3c2)oc1-c1cc(Cl)cs1` [Preparation Example 288], for which, in experiment [1], the “100% inhibition time range” value was “C (A≧20>B≧10>C (minute))”. In addition, the EC50 in experiment [2] was at most 500 nM.
`COc1ccc(-c2nc(CC(=O)O)c(-c3ccsc3)o2)cc1C` [Preparation Example 438]: the “100% inhibition time range” value in experiment [1] is listed as “C (A≧20>B≧10>C (minute))”. Also, the EC50 in experiment [2] was 1000 to 3000 nM.
`CN(C)c1[nH]c(-c2ccc(F)cc2)nc1-c1ccccc1.Cl` [Preparation example 108, 5-dimethylamino-2-(4-fluorophenyl)-4-phenylimidazole hydrochloride]: the “100% inhibition time range” value in experiment [1] is reported as “B (A≧20>B≧10>C (minute))”. For the same compound, the EC50 in experiment [2] lay in the range of 1000 to 3000 nM.
In the case of `O=C([O-])Cc1nc(-c2ccc(F)cc2)oc1-c1ccc(Cl)s1.[Na+]` [Preparation Example 152, 5-(5-chloro-thiophen-2-yl)-2-(4-fluorophenyl)oxazol-4-yl acetic acid sodium salt], the “100% inhibition time range” value in experiment [1] was “B (A≧20>B≧10>C (minute))”. Further, the EC50 in experiment [2] fell in the range of 1000 to 3000 nM.
The like results for `CSc1ccc(-c2nc(CC(=O)O)c(-c3ccc(Cl)cc3)o2)cc1` [Preparation Example 455] were, in that order, “B (A≧20>B≧10>C (minute))” and 1000 to 3000 nM.
As to `CCCc1nc(-c2csc(Cl)c2)[nH]c1-c1ccccc1` [Preparation example 34], in experiment [1], the “100% inhibition time range” value is recorded as “A (A≧20>B≧10>C (minute))”. For the same compound, the EC50 in experiment [2] lay within 1000 to 3000 nM.
On the same counts, the results for `O=C(O)Cc1nc(-c2ccc(F)cc2)oc1-c1ccc(Cl)c(F)c1` [Preparation Example 253] are “A (A≧20>B≧10>C (minute))” and 500 to 1000 nM.
On the same counts, the results for `O=C(O)Cc1nc(-c2cc3ccccc3s2)sc1-c1ccc(Cl)s1` [Preparation Example 610] are “B (A≧20>B≧10>C (minute))” and at most 500 nM.
In the case of `Cc1ccc(-c2nc(CC(=O)O)c(-c3ccc(Cl)s3)o2)s1` [Preparation Example 458], the “100% inhibition time range” value in experiment [1] is given as “B (A≧20>B≧10>C (minute))”. Further, the 50% effective concentration (EC50) in experiment [2] was at most 500 nM.
For `CCc1[nH]c(-c2ccsc2C(C)O)nc1-c1cccnc1.Cl.Cl` (stereo not shown) [Preparation Example 486, 2-[2-(1-hydroxyethyl)thiophen-3-yl]-5-ethyl-4-(3-pyridyl)-imidazole dihydrochloride], in experiment [1], the “100% inhibition time range” value is listed as “B (A≧20>B≧10>C (minute))”. For the same compound, the half-maximal effective concentration (EC50) in experiment [2] lay within 1000 to 3000 nM.
The like results for `O=C(O)Cc1nc(-c2ccc3c(c2)OCCO3)oc1-c1ccc(Cl)s1` [Preparation Example 283] were, in that order, “C (A≧20>B≧10>C (minute))” and at most 500 nM.
On the same counts, the results for `O=C(O)Cc1nc(-c2ccc(F)cc2)oc1-c1csc(Cl)c1` [Preparation Example 286] are “C (A≧20>B≧10>C (minute))” and at most 500 nM.
On the same counts, the results for `O=C(O)Cc1nc(-c2ccc3occc3c2)oc1-c1csc(Cl)c1` [Preparation Example 287] are “B (A≧20>B≧10>C (minute))” and at most 500 nM.
As to `CN(C)c1ccc(-c2nc(-c3ccc(Cl)cc3)c(CC(=O)O)o2)cn1` [Preparation Example 514], in experiment [1], the “100% inhibition time range” value was “B (A≧20>B≧10>C (minute))”. Moreover, in experiment [2], the EC50 fell in the range of 500 to 1000 nM.
On the same counts, the results for `Cc1cc(-c2nc(CC(=O)O)c(-c3ccc(Cl)s3)s2)sc1C` [Preparation Example 612] are “A (A≧20>B≧10>C (minute))” and at most 500 nM.
As for `CN(C)c1ccc(-c2nc(-c3ccc(Cl)s3)c(CC(=O)O)o2)cn1` [Preparation Example 504], the “100% inhibition time range” value in experiment [1] is “C (A≧20>B≧10>C (minute))”. Besides, the EC50 in experiment [2] lay in the range of 1000 to 3000 nM.
On the same counts, the results for `Cc1cc(-c2nc(-c3ccc(Cl)s3)c(CC(=O)O)s2)sc1C` [Preparation Example 587] are “A (A≧20>B≧10>C (minute))” and 500 to 1000 nM.
As for `O=C(O)Cc1nc(-c2ccc(F)cc2)oc1-c1ccc(C(F)(F)F)cc1` [Preparation Example 244], the “100% inhibition time range” value in experiment [1] is “B (A≧20>B≧10>C (minute))”. Besides, in experiment [2], the EC50 lay in the range of 1000 to 3000 nM.
The like results for `Cn1c(-c2oc(-c3ccc(F)cc3)nc2CC(=O)O)cc2ccccc21` [Preparation Example 249] were, in that order, “B (A≧20>B≧10>C (minute))” and 1000 to 3000 nM.
Take `O=C(O)Cc1nc(-c2ccc(F)cc2)oc1-c1cccc(F)c1F` [Preparation Example 252]: in experiment [1], the “100% inhibition time range” value is listed as “C (A≧20>B≧10>C (minute))”. Moreover, the EC50 in experiment [2] lay within 500 to 1000 nM.
